Results published in article PMC3816687, “Relationships between Cargo, Cell Penetrating Peptidesand Cell Type for Uptake of Non-Covalent Complexes into Live Cells” (Pharmaceuticals, 2013).
Entries after “also recorded” stand apart in the source; their conditions may differ. Read-outs that look alike come from different tables or passages of the source. *1 amine or outer side, *2 acyl side, *3 side chain or, on linkers, in order; H or OH if unused. Cysteamide = C(CS[*:3])N[*:1]

Legend:
HeLa cells [1] = settings: non-covalent complexes; cited from earlier work
Experimental: Table 4 Intracellular amounts and concentrations. Internalized amounts are calculated from fluorescence intensities in the homogenate directly or after separation by SDS-PAGE. In the case of nucleoside triphosphates quantification was performed by fluorescence spectrometry. Estimation of cell volumes allows the calculation of intracellular concentrations. […] The rank order for the uptake of β-galactosidase into HeLa cells: JBS-Proteoducin > MPGα ≥ MPGβ > CAD-2 >> CPPP-2 // HIV-TAT = penetratin provides evidence for different requirements of enzyme and nucleotide for co ...

Leishmania tarentolae [2] = settings: non-covalent complexes; cited from earlier work
From the text: Formation of non-covalent complexes between cargo and CPP occurs by optimized interaction of the CPP with the surface of the cargo. These complexes are stabilized by ionic, polar, π-electron-cation, or hydrophobic interactions, hydrogen bonds and common interactions between molecules. Thus, for the same cell type different cargoes show different rank orders for CPPs.

Leishmania tarentolae [3] = assay: Transduction of ATTO488-BSA into Leishmania tarentolae; format: cell-based; settings: molar ratio 1:10, Leishmania tarentolae, fluorescence plate reader after cell lysis
Experimental: A detailed description of formation of complexes with peptides and proteins is given in a previous publication. Briefly, cargo proteins (ATTO488-BSA, MW ≈ 68 kDa, β-galactosidase, MW ≈ 540 kDa) and the calculated volume of stock solution of CPPs or JBS-Proteoducin were dissolved separately in 100 µL of 1× PBS). Both solutions were thoroughly mixed by repeated pipetting. The mixture was incubated for 30 minutes at 37 °C to achieve complex formation. The molar ratio of cargo to CPPs was usually calculated to 1:10. For internalization of higher amounts of cargo, both the amount of protein and stock solution of CPP or cocktail, respectively, were multiplied. […]
For confocal microscopy of fixed and living cells, a LSM 710 laser scanning confocal microscope was used as previously described. […] To avoid bleed-through effects in multi-fluorescence staining experiments, each dye was scanned independently in a multitracking mode. […]
Quantitative fluorescence measurements on internalized fluorescent nucleotide and SDS-PAGE with fluorescent proteins allow the calculation of the internalized amount of cargo. […] The mean volume was calculated to 1.2 × 10^−5 µL. […] Uptake of ATTO488-BSA into Leishmania tarentolae was estimated with a fluorescence plate reader after cell lysis. The volume of Leishmania tarentolae was calculated to 2.0 × 10^−7 µL.

Jurkat cells = assay: Internalization of β-galactosidase into Jurkat cells, X-gal staining; format: cell-based, Human; settings: complexes of β-galactosidase and CPP, ratio 1:10, X-Gal staining
Experimental: (§1) A detailed description of formation of complexes with peptides and proteins is given in a previous publication. Briefly, cargo proteins (ATTO488-BSA, MW ≈ 68 kDa, β-galactosidase, MW ≈ 540 kDa) and the calculated volume of stock solution of CPPs or JBS-Proteoducin were dissolved separately in 100 µL of 1× PBS). Both solutions were thoroughly mixed by repeated pipetting. The mixture was incubated for 30 minutes at 37 °C to achieve complex formation. The molar ratio of cargo to CPPs was usually calculated to 1:10. For internalization of higher amounts of cargo, both the amount of protein and stock solution of CPP or cocktail, respectively, were multiplied. Complexes of the enzyme β-galactosidase and JBS-Proteoducin were formed from 1 µg β-galactosidase and 1 µL stock solution of JBS-Proteoducin under the described conditions.
The thoroughly washed cell pellet was suspended in 200 µL of complex solution followed by 400 µL of serum free medium, gently mixed and transferred into 24-well plates. […] After addition of 1.4 mL of complete culture medium incubation was continued at 37 °C for approx. 2 h in a humidified atmosphere containing 5% CO2. The cells were washed by spinning down twice with PBS, three times with glycine buffer (pH 3.0) and twice with PBS.
(§2) Staining of the cells took place in multiwell-plates. Jurkat and Leishmania cells were stained according to the instructions described in [24], using a staining solution containing potassium ferrocyanide, potassium ferricyanide and X-gal. Leishmania cells were stained after finishing the above described transduction protocol. For Jurkat cells the staining was performed after transferring cells from spinning tubes used in the last washing step to 24-well plates. Cells were incubated in staining solution overnight and directly observed in a microscope using a 400-fold magnification.

Leishmania tarentolae [4] = assay: Internalization of β-galactosidase into Leishmania tarentolae, X-gal staining; format: cell-based; settings: molar ratios 1:5, 1:10, 1:20 of cargo and CPP
Experimental: as §1
For transduction cells in an early stage of development were used. To this end stock cultures were diluted 1:10 the day before the experiment into 10 mL of culture medium in 25 cm^2-ventilated tissue culture flasks and were incubated overnight in the dark at 26 °C for optimal proliferation. Cell suspensions with an OD of 1.2 (ca. 4 × 10^7 cells/mL) were used for transduction. The cells were thoroughly washed twice with PBS (5 mL each) by centrifugation (2,000 × g, 3 min). Pellets were resuspended in the original volume of PBS containing 0.1% BSA and aliquoted into 24-well plates. Four hundred µL of cell suspension were used per experiment. Two hundred µL of the complex solutions were added to these cells and mixtures were incubated for 1 h at 26 °C in the dark with gentle agitation. Successively, 1 mL of complete growth medium (LEXSY BHI) was added per sample and incubation was continued at 26 °C for 2 h. Cells were washed twice with PBS (2 mL each) by centrifugation (2,000 × g, 3 min) prior to analysis of transduction.
as §2

Leishmania tarentolae [5] = assay: Cytotoxicity test for Leishmania tarentolae (morphology and motility); format: cell-based
Experimental: Leishmania cells were cultivated as described previously, resuspended in PBS and treated with increasing concentrations of cocktails and CPPs for 1 h. Cytotoxic effects were monitored by changes in morphology and motility observed using a microscope at 400-fold magnification.

HeLa cells [6] = settings: non-covalent complexes, X-Gal staining; cited from earlier work
From the text: HeLa cells: As shown in our preceding publication, the CPP cocktail JBS-Proteoducin can internalize enzymatic active β-galactosidase into all cell types investigated, including difficult to transfect Kasumi-1 cells. The active enzyme was transported not only into all types of cells but all of the observed cells are also positively stained using the β-galactosidase substrate 5-bromo-4-chloro-indolyl-β-D-galactopyranoside (X-Gal).

COS-7 cells = assay: Degradation of CPPs by secreted and surface bound proteases of COS-7 cells; settings: 60 min incubation with 0.3 × 10^6 intact cells per well, PBS, 37 °C, 5% CO2, RP18 HPLC, 220 nm
Experimental: (§3) In a 6-well-plate with 0.3 × 10^6 cells per well the different cell types were cultivated overnight under optimized conditions. Then medium was removed by aspiration (adherent cell) or centrifugation (suspension cells) and washed cells were incubated with CPPs in phosphate buffer solution (PBS). Incubation was performed under the same conditions as the transduction of complexes with the cargo for 1 h at 37 °C in a humidified atmosphere containing 5% CO2. After 15, 30, 45 and 60 min samples of 200 µL were taken and the proteolytic reaction was stopped by addition of 50 µL 37 perc. HCl. After freezing and lyophilization samples were analyzed by analytical high performance liquid chromatography (HPLC), using a RP18 column (Vydac 218TP). In case of MPGβ, for elution a gradient was used from 10% acetonitrile and 90% water, both containing 0.1% trifluoroacetic acid to 60% acetonitrile and 40% water in 50 min. […] The flow rate was 1.0 ml/min and detection was performed at 220 nm.

[7] = tested on: most of the cells investigated; assay: Proteolytic stability of CPPs compared over the cells investigated; format: in vitro ADME; settings: incubation with intact cells up to 60 min, PBS, 37 °C, HPLC
Experimental: as §3

NB-4 cells [8] = assay: Degradation of CPPs by proteases of NB-4 cells; format: in vitro ADME, Human; settings: 60 min incubation with 0.3 × 10^6 intact cells per well, PBS, 37 °C, 5% CO2, RP18 HPLC, 220 nm
Experimental: as §3

different cell lines = assay: Membrane integrity, CytoTox-Glo assay, different cell lines; format: cell-based; settings: up to 141 µM, 1 h at 37 °C in serum-free medium, triplicates
Experimental: (§4) Cells were cultured under standard conditions and treated in serum-free medium for 1 h at 37 °C with different CPPs and the cocktail. After removal of CPPs and repeated washings the membrane integrity of the cells was estimated by the bioluminescence test CytoTox-Glo measuring the release of a cytosolic dead-cell protease. The CytoTox-Glo assay was performed according to the supplier’s instructions and adapted to 96-well plates. Bioluminescence was estimated by a luminescence plate reader. Each value was measured in triplicates with an SD of ± 1.2.

NB-4 cells [9] = assay: Membrane integrity, CytoTox-Glo assay, NB-4 cells; format: cell-based, Human; settings: low concentrations (9.4 µM), 1 h at 37 °C in serum-free medium, triplicates
Experimental: as §4

HeLa cells [10] = assay: Membrane integrity, CytoTox-Glo assay, HeLa cells; format: cell-based, Human; settings: low concentrations (9.4 µM), 1 h at 37 °C in serum-free medium, triplicates
Experimental: as §4

[11] = 1 h in PBS with increasing concentrations, changes in morphology and motility, microscope 400-fold

Substance	rank order of uptake efficiency of ATTO488-dUTP into HeLa cells (HeLa cells [1])	rank order for transport of ATTO488-labeled BSA into Leishmania (Leishmania tarentolae [2])	Internalized amount, amol per cell (Leishmania tarentolae [3]; cargo ATTO488-BSA 1 µg + CPP)	Internalized amount, amol per cell (Leishmania tarentolae [3]; cargo ATTO488-BSA 10 µg + CPP)	rank order for internalization of β-galactosidase into Jurkat cells (Jurkat cells)	rank order for uptake efficiency of β-galactosidase into Leishmania tarentolae (Leishmania tarentolae [4])	Cytotoxicity in Leishmania tarentolae (Leishmania tarentolae [5]) [µM]	rank order for internalization of β-galactosidase into HeLa cells (HeLa cells [6])	Cytotoxicity in Leishmania tarentolae (Leishmania tarentolae [5]; [11]) [µM]	sensitivity of Leishmania tarentolae cells (Leishmania tarentolae [5]; concentrations of 10 µM, morphology and motility)	stability against proteolytic cleavage by COS-7 cells (HPLC peak) (COS-7 cells)	relative proteolytic stability among the CPPs [7]	stability against proteolytic cleavage by NB-4 cells (HPLC peak) (NB-4 cells [8])	reduction of membrane integrity with increasing concentrations (different cell lines)	membrane integrity of NB-4 cells (release of dead-cell protease) (NB-4 cells [9])	membrane integrity of HeLa cells (release of dead-cell protease) (HeLa cells [10])
Ac-GALFLAFLAAALSLMGLWSQPKKKRKV-NH-CH2-CH2-SH (Ac-GALFLAFLAAALSLMGLWSQPKKKRKV-Cysteamide; SMILES CSCC[C@H](NC(=O)[C@H](CC(C)C)NC(=O)[C@H](CO)NC(=O)[C@H](CC(C)C)NC(=O)[C@H](C)NC(=O)[C@H](C)NC(=O)[C@H](C)NC(=O)[C@H](CC(C)C)NC(=O)[C@H](Cc1ccccc1)NC(=O)[C@H](C)NC(=O)[C@H](CC(C)C)NC(=O)[C@H](Cc1ccccc1)NC(=O)[C@H](CC(C)C)NC(=O)[C@H](C)NC(=O)CNC(C)=O)C(=O)NCC(=O)N[C@@H](CC(C)C)C(=O)N[C@@H](Cc1c[nH]c2ccccc12)C(=O)N[C@@H](CO)C(=O)N[C@@H](CCC(N)=O)C(=O)N1CCC[C@H]1C(=O)N[C@@H](CCCCN)C(=O)N[C@@H](CCCCN)C(=O)N[C@@H](CCCCN)C(=O)N[C@@H](CCCNC(=N)N)C(=O)N[C@@H](CCCCN)C(=O)N[C@H](C(=O)NCCS)C(C)C) [MPGα, MPG cell penetrating peptide, 5 positive charges]	JBS-Nucleoducin > CAD-2 > MPGα ≥ MPGβ > penetratin >> CPP-2	MPGα >> CAD-2 > histone	0.8 x 10^−2 amol per cell	3.3 x 10^−2 amol per cell	JBS-Proteoducin > MPGβ > MPGα > CAD-2 >> CPPP-2	CAD-2 > MPGα > Histone > MPGβ >> penetratin ≥ HIV-TAT ≥ CPPP-2	≤ 5	JBS-Proteoducin > MPGα ≥ MPGβ > CAD-2 >> CPPP-2 // HIV-TAT, penetratin								
Ac-GALFLGFLGAAGSTMGAWSQPKKKRKV-NH-CH2-CH2-SH [MPGβ]	JBS-Nucleoducin > CAD-2 > MPGα ≥ MPGβ > penetratin >> CPP-2				JBS-Proteoducin > MPGβ > MPGα > CAD-2 >> CPPP-2	CAD-2 > MPGα > Histone > MPGβ >> penetratin ≥ HIV-TAT ≥ CPPP-2		JBS-Proteoducin > MPGα ≥ MPGβ > CAD-2 >> CPPP-2 // HIV-TAT, penetratin	≤ 5	very sensitive	strongly reduced					
GLWRALWRLLRSLWRLLWKA-NH-CH2-CH2-SH [CAD-2]	JBS-Nucleoducin > CAD-2 > MPGα ≥ MPGβ > penetratin >> CPP-2	MPGα >> CAD-2 > histone			JBS-Proteoducin > MPGβ > MPGα > CAD-2 >> CPPP-2	CAD-2 > MPGα > Histone > MPGβ >> penetratin ≥ HIV-TAT ≥ CPPP-2	≤ 25	JBS-Proteoducin > MPGα ≥ MPGβ > CAD-2 >> CPPP-2 // HIV-TAT, penetratin			remains stable	nearly unaffected; also recorded: most stable	remains stable	very low	sensitive	sensitive
KLPVM [CPPP-2, cell penetrating pentapeptide, 2 positive charges]	JBS-Nucleoducin > CAD-2 > MPGα ≥ MPGβ > penetratin >> CPP-2				JBS-Proteoducin > MPGβ > MPGα > CAD-2 >> CPPP-2	CAD-2 > MPGα > Histone > MPGβ >> penetratin ≥ HIV-TAT ≥ CPPP-2		JBS-Proteoducin > MPGα ≥ MPGβ > CAD-2 >> CPPP-2 // HIV-TAT, penetratin	≥ 100							
YGRKKRRQRRR-amide [HIV-TAT (47-57), amphiphilic-cationic cell penetrating peptide, 9 positive charges]	not able to transport					CAD-2 > MPGα > Histone > MPGβ >> penetratin ≥ HIV-TAT ≥ CPPP-2		JBS-Proteoducin > MPGα ≥ MPGβ > CAD-2 >> CPPP-2 // HIV-TAT, penetratin	≥ 30							
